Test results reported in publication PMC10794144, “A novel antibiotic class targeting the lipopolysaccharide transporter” (Nature, 2024).

Key:
[1] = target: T1, Angiotensin II receptor 1 (Homo sapiens, UniProt P30556); assay: Off-target screening (CEREP); format: binding; details: read-out: percent inhibition
T1 construct: purchased Eurofins CEREP SA
T1 sequence (P30556 1-359): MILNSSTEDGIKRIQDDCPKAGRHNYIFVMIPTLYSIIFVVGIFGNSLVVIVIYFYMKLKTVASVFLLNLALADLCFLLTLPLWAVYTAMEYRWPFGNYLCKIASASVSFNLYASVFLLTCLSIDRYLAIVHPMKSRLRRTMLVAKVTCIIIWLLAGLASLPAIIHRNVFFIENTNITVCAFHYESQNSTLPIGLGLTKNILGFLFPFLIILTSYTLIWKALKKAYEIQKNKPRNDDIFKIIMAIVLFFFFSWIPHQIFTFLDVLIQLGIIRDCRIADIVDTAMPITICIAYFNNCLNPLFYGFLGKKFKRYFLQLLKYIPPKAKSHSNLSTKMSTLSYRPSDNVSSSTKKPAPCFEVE
Method: (§1) Supplementary Table 1 │ Off-target activity screening f or MCP compou nds […]
(§2) The assays given in the table above were conducted at Eurofins CEREP S A (Celle-Lévescault, France) and were run as single point measurements in duplicates in the presence of 10 µ M of the test compound and reported as percent inhibition of the radioligand signal or control enzymatic activity. n.d., not

Cannabinoid receptor CB1 = target: T2, Cannabinoid receptor CB1 (Homo sapiens, UniProt P21554); assay: Off-target screening (CEREP); format: binding; details: read-out: percent inhibition
T2 construct: purchased Eurofins CEREP SA
Method: as §1, §2

5HT2B = target: T3, 5HT2B (Homo sapiens, UniProt P41595); assay: Off-target screening (CEREP); format: binding; details: read-out: percent inhibition
T3 construct: purchased Eurofins CEREP SA
Method: as §1, §2

Dopamine D1 receptor = target: T4, Dopamine D1 receptor (Homo sapiens, UniProt P21728); assay: Off-target screening (CEREP); format: binding; details: read-out: percent inhibition
T4 construct: purchased Eurofins CEREP SA
Method: as §1, §2

Muscarinic receptor M2 = target: T5, Muscarinic receptor M2 (Homo sapiens, UniProt P08172); assay: Off-target screening (CEREP); format: binding; details: read-out: percent inhibition
T5 construct: purchased Eurofins CEREP SA
T5 sequence (P08172 1-466): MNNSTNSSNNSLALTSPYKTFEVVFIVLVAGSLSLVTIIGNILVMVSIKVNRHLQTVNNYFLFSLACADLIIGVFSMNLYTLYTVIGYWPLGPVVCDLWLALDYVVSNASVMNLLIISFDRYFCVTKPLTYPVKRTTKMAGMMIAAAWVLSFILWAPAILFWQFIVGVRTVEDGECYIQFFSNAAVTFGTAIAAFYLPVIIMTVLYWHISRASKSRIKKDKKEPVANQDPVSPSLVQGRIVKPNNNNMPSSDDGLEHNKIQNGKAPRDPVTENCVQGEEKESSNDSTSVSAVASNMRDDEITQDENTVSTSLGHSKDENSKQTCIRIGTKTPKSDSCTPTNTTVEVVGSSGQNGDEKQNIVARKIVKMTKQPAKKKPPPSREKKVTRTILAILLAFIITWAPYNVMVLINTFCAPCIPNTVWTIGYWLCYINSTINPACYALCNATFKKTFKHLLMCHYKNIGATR
Method: as §1, §2

Mu opioid receptor = target: T6, Mu opioid receptor (Homo sapiens, UniProt P35372); assay: Off-target screening (CEREP); format: binding; details: read-out: percent inhibition
T6 construct: purchased Eurofins CEREP SA
Method: as §1, §2

5HT1A = target: T7, 5HT1A (Homo sapiens, UniProt P08908); assay: Off-target screening (CEREP); format: binding; details: read-out: percent inhibition
T7 construct: purchased Eurofins CEREP SA
T7 sequence (P08908 1-422): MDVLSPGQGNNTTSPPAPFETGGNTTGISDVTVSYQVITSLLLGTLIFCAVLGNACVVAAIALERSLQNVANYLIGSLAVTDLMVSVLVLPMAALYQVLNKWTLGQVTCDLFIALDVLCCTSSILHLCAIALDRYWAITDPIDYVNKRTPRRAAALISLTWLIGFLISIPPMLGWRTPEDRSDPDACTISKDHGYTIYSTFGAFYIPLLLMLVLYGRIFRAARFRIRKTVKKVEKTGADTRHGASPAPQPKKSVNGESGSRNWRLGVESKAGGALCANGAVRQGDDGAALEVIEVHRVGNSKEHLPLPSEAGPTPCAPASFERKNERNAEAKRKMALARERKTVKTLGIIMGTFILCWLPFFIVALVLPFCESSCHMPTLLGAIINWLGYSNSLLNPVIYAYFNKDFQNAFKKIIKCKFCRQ
Method: as §1, §2

Beta2-adrenoreceptor = target: T8, Beta2-adrenoreceptor (Homo sapiens, UniProt P07550); assay: Off-target screening (CEREP); format: binding; details: read-out: percent inhibition
T8 construct: purchased Eurofins CEREP SA
Method: as §1, §2

Estrogen receptor alpha = target: T9, Estrogen receptor alpha (Homo sapiens, UniProt P03372); assay: Off-target screening (CEREP); format: binding; details: read-out: percent inhibition
T9 construct: purchased Eurofins CEREP SA
Method: as §1, §2

Histamine H1 receptor = target: T10, Histamine H1 receptor (Homo sapiens, UniProt P35367); assay: Off-target screening (CEREP); format: binding; details: read-out: percent inhibition
T10 construct: purchased Eurofins CEREP SA
Method: as §1, §2

Beta1-adrenoreceptor = target: T11, Beta1-adrenoreceptor (Homo sapiens, UniProt P08588); assay: Off-target screening (CEREP); format: binding; details: read-out: percent inhibition
T11 construct: purchased Eurofins CEREP SA
Method: as §1, §2

C. albicans ATCC 90028 = assay: microbe, parasite or virus in culture; details: Candida albicans, ATCC90028
[2] = system: GABA-A (benzodiazapine binding site); assay: Off-target screening (CEREP); design: species or system rat; details: 10 µM, duplicates
Method: as §1, §2

[3] = system: K. pneumoniae ATCC 700603; assay: microbe, parasite or virus in culture; details: for RO7223280 MIC 100%: K. pneumoniae ATCC 700603, read at 100%
In short: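 MIC was taken as the lowest concentration without visible growth, or past which OD600 no longer fell. Testing followed CLSI M07 and M100 broth microdilution, using 0.5 McFarland-derived inocula in CAMHB (LB for A. baylyi isolates).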

[4] = system: Ca2+ channel (diltiazem site); assay: Off-target screening (CEREP); format: binding, rat; details: 10 µM, duplicates
Method: as §1, §2

PCP receptor = assay: Off-target screening (CEREP); format: binding, rat; details: 10 µM, duplicates
Method: as §1, §2

[5] = system: GABA Cl- channel receptor; assay: Off-target screening (CEREP); format: binding, rat; details: 10 µM, duplicates
Method: as §1, §2

T10 sequence (P35367 whole entry): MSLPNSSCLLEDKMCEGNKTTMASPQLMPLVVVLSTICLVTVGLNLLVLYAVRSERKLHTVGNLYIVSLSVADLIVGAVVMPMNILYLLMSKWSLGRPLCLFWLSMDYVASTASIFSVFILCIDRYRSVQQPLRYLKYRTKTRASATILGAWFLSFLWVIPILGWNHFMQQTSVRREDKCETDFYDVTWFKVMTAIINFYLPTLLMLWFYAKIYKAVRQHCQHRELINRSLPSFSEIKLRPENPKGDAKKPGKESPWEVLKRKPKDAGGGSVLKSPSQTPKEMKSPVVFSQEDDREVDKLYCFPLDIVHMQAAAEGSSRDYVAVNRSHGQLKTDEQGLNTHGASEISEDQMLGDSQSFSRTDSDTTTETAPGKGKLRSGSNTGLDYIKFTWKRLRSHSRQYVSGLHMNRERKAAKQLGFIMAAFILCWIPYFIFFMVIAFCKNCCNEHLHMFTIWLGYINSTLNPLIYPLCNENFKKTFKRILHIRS
T2 sequence (P21554 whole entry): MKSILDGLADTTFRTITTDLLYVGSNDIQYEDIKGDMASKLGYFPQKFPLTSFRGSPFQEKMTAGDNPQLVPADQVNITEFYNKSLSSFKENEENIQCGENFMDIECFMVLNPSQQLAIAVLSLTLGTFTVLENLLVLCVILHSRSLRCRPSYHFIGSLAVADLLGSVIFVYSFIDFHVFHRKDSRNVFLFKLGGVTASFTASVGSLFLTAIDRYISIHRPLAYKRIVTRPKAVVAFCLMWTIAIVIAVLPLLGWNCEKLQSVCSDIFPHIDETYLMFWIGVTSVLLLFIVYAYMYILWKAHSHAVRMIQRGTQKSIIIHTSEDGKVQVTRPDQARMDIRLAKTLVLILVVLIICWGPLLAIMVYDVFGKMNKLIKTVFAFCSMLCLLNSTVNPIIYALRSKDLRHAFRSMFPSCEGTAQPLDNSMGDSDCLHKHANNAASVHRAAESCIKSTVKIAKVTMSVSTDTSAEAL
T3 sequence (P41595 whole entry): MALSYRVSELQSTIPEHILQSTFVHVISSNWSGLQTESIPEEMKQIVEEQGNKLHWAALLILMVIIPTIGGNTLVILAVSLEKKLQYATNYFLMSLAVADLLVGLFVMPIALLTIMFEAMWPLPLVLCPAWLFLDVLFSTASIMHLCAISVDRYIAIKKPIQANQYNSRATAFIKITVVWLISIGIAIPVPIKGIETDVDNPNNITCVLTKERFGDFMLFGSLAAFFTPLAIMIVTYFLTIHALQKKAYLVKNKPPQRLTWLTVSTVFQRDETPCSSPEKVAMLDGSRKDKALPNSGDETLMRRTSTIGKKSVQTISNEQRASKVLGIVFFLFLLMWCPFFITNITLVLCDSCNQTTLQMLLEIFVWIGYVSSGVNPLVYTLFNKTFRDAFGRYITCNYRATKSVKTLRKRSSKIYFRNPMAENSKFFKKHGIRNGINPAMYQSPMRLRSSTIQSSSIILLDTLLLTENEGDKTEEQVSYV
T6 sequence (P35372 whole entry): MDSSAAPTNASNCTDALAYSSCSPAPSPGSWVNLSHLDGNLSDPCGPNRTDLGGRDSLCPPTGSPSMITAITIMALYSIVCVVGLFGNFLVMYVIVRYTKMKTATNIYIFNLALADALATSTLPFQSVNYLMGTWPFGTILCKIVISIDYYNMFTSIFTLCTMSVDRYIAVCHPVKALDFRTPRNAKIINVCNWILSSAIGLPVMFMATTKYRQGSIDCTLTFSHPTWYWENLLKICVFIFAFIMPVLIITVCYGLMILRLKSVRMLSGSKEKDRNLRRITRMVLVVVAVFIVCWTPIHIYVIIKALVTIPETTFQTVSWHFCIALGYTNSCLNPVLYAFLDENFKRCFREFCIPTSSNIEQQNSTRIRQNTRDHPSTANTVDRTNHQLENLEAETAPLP
T8 sequence (P07550 whole entry): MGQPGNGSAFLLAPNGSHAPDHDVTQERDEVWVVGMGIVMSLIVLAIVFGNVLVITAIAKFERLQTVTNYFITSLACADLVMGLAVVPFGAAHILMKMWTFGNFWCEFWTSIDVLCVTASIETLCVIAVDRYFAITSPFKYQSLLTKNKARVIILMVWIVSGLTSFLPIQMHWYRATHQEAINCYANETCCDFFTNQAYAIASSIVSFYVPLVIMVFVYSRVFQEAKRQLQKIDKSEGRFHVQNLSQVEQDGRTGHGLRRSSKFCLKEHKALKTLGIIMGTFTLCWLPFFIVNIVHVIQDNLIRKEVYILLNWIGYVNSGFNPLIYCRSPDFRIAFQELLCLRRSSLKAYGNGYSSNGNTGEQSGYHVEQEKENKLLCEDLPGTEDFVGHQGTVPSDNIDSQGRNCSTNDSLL
T4 sequence (P21728 whole entry): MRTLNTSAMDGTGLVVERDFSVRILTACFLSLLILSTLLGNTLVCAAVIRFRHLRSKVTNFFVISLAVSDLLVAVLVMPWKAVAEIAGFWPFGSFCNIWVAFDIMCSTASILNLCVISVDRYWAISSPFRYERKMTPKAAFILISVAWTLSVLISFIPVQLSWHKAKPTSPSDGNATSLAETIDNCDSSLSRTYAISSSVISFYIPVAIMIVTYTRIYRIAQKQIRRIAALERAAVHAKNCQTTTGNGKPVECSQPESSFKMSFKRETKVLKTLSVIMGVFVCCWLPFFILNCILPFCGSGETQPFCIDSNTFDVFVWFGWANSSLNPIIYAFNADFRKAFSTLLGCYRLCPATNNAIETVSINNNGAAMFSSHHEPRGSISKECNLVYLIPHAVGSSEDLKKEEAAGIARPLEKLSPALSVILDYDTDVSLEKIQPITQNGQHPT
T11 sequence (P08588 whole entry): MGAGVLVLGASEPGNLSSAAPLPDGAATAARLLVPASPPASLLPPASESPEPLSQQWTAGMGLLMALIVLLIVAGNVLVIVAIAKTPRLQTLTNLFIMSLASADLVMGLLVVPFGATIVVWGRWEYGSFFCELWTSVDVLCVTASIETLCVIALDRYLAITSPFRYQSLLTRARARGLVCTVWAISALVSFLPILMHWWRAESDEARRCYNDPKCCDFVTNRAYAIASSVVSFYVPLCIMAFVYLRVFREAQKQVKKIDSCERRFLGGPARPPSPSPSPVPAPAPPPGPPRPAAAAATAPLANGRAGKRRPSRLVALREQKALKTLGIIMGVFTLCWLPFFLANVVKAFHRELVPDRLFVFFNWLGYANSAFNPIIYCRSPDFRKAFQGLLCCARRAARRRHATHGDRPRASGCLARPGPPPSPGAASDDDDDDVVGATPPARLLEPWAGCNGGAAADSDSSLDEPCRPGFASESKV
T9 sequence (P03372 whole entry): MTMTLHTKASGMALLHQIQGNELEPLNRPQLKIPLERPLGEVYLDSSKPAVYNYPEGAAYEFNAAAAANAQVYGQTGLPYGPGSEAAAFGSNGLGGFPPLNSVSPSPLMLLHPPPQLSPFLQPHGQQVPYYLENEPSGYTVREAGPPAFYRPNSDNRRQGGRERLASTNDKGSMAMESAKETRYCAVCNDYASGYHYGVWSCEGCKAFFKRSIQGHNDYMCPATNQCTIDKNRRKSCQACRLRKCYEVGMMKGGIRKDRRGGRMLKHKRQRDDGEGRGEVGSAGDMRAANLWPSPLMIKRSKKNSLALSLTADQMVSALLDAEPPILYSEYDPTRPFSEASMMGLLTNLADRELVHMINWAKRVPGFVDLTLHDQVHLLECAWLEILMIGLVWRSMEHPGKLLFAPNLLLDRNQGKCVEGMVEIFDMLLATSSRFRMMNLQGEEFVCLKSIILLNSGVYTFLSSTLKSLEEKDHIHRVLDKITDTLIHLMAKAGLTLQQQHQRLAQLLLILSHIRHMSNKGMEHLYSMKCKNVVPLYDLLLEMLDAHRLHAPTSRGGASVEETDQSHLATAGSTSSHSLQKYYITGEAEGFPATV

Compound `CN1C(=O)[C@H](CCCCN)NC(=O)[C@H](CCCN)NCc2cccnc2Sc2cccc(-c3ccc(C(=O)O)cc3)c2CNC(=O)[C@@H]1Cc1c[nH]c2ccccc12` [zosurabalpin] has an inhibition at 10 µM [1] of 6%, an inhibition at 10 µM (Cannabinoid receptor CB1) of -20% and an inhibition at 10 µM (5HT2B) of -1%. For the same compound, the inhibition at 10 µM (Dopamine D1 receptor) was -3%, the inhibition at 10 µM (Muscarinic receptor M2) was 17% and the inhibition at 10 µM (Mu opioid receptor) was 4%. For the same compound, the inhibition at 10 µM (5HT1A) was 0%, the inhibition at 10 µM (Beta2-adrenoreceptor) was 6% and the inhibition at 10 µM (Estrogen receptor alpha) was 7%. The inhibition at 10 µM (Histamine H1 receptor) was -4%, the inhibition at 10 µM (Beta1-adrenoreceptor) was 10% and the MIC (C. albicans ATCC 90028) was greater than 64 µg/mL. The Ames (Ames) was “Negative”, the percent inhibition [2] was -1% and the “RO7223280 MIC 100%” value ([3]; Study LGC296813) was greater than 64 µg/mL. For the same compound, the “RO7223280 MIC 100%” value ([3]; Study LGC299544) was greater than 64 µg/mL, the “RO7223280 MIC 100%” value ([3]; Study LGC308175) was greater than 64 µg/mL and the MIC ([3]; Klebsiella pneumoniae, ATCC700603) was greater than 64 µg/mL. For the same compound, the percent inhibition [4] was -11%, the percent inhibition (PCP receptor) was -24% and the percent inhibition [5] was 1%.
